Laboratory results taken from US7618697B2, “Carboxylic acid esters of zosteric acid for prevention of biofouling” (Ciba Specialty Chemicals Corporation, priority 2005, dated 2009).

System: Staphyloccus aureus
Assay: Microbial antiadhesion assay on coated PMMA test pins
Format: cell-based
Details: adhering microbes as percent of control pins (acrylate film former only = 100%), test concentration 0.50% in Glascol LS26 acrylate film former, 60 min in S. aureus suspension, immunological detection
Protocol: Microbial Antiadhesion Assay
According to the method of Nature Medicine Vol. 6, No. 8, 1053-1056, Zosterate esters are dissolved in a solution containing an acrylate polymeric film former (Glascol LS26, 4.6% active). Test pins made of PMMA are dipped into the solutions, incubated for 20 minutes and allowed to dry. The test pins are incubated in a suspension of Staphyloccus aureus for 60 min, then rinsed with PBS buffer. The microbial cells adhering to the pin are detected in an immunological assay using specific antibodies against the test strain which are then detected […]. The results are reported as a percent relative to the control pins (treated with acrylate film former only), a value of 100% represents the value observed on the control pins; a value of 42% represents a 0.42× the amount of microbes found on the pins treated with acrylate film former only.

## CCCCOC(=O)/C=C/c1ccc(OS(=O)(=O)O)cc1 [1-Butyl zosterate]
  Results on PMMA Based on Control: 70%

## CCC(C)OC(=O)/C=C/c1ccc(OS(=O)(=O)O)cc1 (stereo not drawn) [2-Butyl zosterate]
  Results on PMMA Based on Control: 42%

## COC(=O)/C=C/c1ccc(OS(=O)(=O)O)cc1 [Methyl zosterate, Methyl Zosterate]
  Results on PMMA Based on Control: 28%
